The text below walks through data of US8362023B2, “Pyrazolo pyrimidines” (Hoffmann-La Roche Inc., priority 2011, dated 2013).

One assay deals with T1, Human DYRK1B (Homo sapiens, UniProt Q9Y463).
T1 construct: purchased Invitrogen PR8350B (former PV4649)
In words: DYRK1B Kinase TR-FRET (IMAP-Tb) Assay. It counts as biochemical. As to conditions: TR-FRET (IMAP-Tb); ATP 70 μM; 37° C. for 60 minutes; averages of multiple runs; read-out: Enzyme IC50 (μM) DYRK1B. In general terms: TR-FRET usually uses a lanthanide donor and a delayed reading to cut background.

The next assay addresses T2, Human DYRK1A (Homo sapiens, UniProt Q13627).
T2 construct: purchased Invitrogen PV3997
In words: DYRK1A Kinase TR-FRET (IMAP-Tb) Assay. It counts as biochemical. Particulars: TR-FRET (IMAP-Tb); ATP 70 μM; 37° C. for 60 minutes; averages of multiple runs; read-out: Enzyme IC50 (μM) DYRK1A. Summed up: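 Human DYRK1A phosphorylates a fluorescent substrate peptide (1.0 μM) in HEPES pH 7.0 buffer with Mg2+, DTT and vanadate for 60 min at 37 °C. The phosphopeptide is captured by IMAP beads carrying a Tb tracer, and the TR-FRET signal is read at 340 nm excitation. IC50 reflects inhibition of substrate phosphorylation.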

Assay [1] has as its system SW620 human colon cancer cells. Kind of assay: SW620 Cell Viability Assay. It is filed as cell-based. Particulars: SW-620, 96 h, CellTiter-Glo Luminescent Cell Viability Assay, 4 days incubation, read-out: Cellular EC50 (μM) SW620. The method, then: SW620 Cell Viability Assay
1. Cell Plate Preparation: SW620 human colon cancer cells (known to express DYRK1B), obtained from ATCC, were seeded into 96-well plates at 3×10^3 cells/well in 50 μL of media. • Harvested the required number of cells (counts & viability determined by Guava Viacount). • Centrifuge cells to pellet and removed supernant. • Resuspended in growth media (50 μL/well) & pipetted thoroughly to break up clumps. • Setup for ˜100 wells/plate, therefore, VT=5 mL/plate @ […].
1A. Some cells (S—) were allowed to attach for 24 hrs, serum starved for 48 hrs, and then followed with test compound treatments.
Test compound solution were prepared in regular corresponding media supplemented with serum.
2. Test compound Preparation: Drugs were solubilized in either DMSO or media and prepared at various stock concentrations. • All compounds were incubated at 37° C. for 30 minutes and vortexed. • (5 mM stocks of test compound were prepared for non-soluble test compounds)
3. Test compound Plate Preparation: • The 10 mM test compound stock was diluted to a concentration of 100× the final Cmax concentration. • Then the test compound stock is diluted 50-fold in media and/or second test compound for a final Cmax concentration in the test compound plate. • The Cmax in the test compound plate (2% DMSO) is 2-fold higher than the final Cmax in the cell plate (60 μl, titrations were 1:3).
4. Viability Assay: This assay was performed as follows: • Transfer 50 μL of test compound solution per well from the test compound plate onto the cell plate prepared in Step #1. • Mix the plate with treated cells by pipetting up and down three times with 200 μL multi-channel pipette. • Incubate the cells in 5% CO2 incubator @ 37° C. for 4 days. • Run the CellTiter-Glo™ Luminescent Cell Viability Assay.
The results of this assay, given as EC50 values, indicate the concentration of test compound that inhibits tumor cell proliferation by 50%.

Structures can show the parent of a compound that is named as a salt.

T1 sequence (Q9Y463 whole entry): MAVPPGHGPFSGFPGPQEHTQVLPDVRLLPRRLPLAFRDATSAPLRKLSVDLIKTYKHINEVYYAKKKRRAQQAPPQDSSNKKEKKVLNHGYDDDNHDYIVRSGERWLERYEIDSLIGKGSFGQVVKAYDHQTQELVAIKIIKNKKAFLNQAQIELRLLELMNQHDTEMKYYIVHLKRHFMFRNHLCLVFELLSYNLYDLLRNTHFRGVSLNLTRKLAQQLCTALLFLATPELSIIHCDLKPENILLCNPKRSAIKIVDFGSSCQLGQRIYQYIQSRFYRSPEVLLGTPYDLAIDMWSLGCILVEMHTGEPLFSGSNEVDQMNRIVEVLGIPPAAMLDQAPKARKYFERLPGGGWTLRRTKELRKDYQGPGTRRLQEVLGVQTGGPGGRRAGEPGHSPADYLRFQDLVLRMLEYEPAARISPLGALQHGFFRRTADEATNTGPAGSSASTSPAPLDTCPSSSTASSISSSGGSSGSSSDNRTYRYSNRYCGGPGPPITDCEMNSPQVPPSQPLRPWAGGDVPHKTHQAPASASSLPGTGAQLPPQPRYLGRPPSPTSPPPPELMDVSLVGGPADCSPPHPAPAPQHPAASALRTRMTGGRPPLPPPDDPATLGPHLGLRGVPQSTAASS

For orientation: IC50 means the concentration that inhibits the measured activity by half. In general, EC50 refers to the midpoint of the concentration-response curve. For `N[C@H]1CC[C@H](Nc2ncc3c(-c4cccc(NCc5ccccc5Cl)c4)n[nH]c3n2)CC1` [Example 56, N-{3-[3-(2-Chloro-benzylamino)-phenyl]-1H-pyrazolo[3,4-d]pyrimidin-6-yl}-cyclohexane-1,4-diamine], the IC50 on Human DYRK1B was 0.194 µM; at Human DYRK1A, 0.346 µM. The 50% effective concentration (EC50) in assay [1] turned out to be 4.1 µM.

For `N[C@H]1CC[C@H](Nc2ncc3c(-c4cccc(NCc5ccccc5)c4)n[nH]c3n2)CC1` [Example 52, N-[3-(3-Benzylamino-phenyl)-1H-pyrazolo[3,4-d]pyrimidin-6-yl]-cyclohexane-1,4-diamine], the IC50 at Human DYRK1B amounted to 0.241 µM; at Human DYRK1A, 0.594 µM. Also, the EC50 in assay [1] was 0.923 µM.

On to `N[C@H]1CC[C@H](Nc2ncc3c(-c4ccnc(NCc5ccccc5)n4)n[nH]c3n2)CC1` [Example 70, N-[3-(2-Benzylamino-pyrimidin-4-yl)-1H-pyrazolo[3,4-d]pyrimidin-6-yl]-cyclohexane-1,4-diamine; hydrochloride], for which the results for the IC50 at Human DYRK1B and on Human DYRK1A were 0.0125 µM and 0.0062 µM, respectively. For the same compound, the EC50 in assay [1] was over 10 µM.

For `NCCC(Nc1cccc(-c2n[nH]c3nc(N[C@H]4CC[C@H](N)CC4)ncc23)n1)c1ccccc1` (stereo partly drawn) [Example 69, N-{3-[6-(3-Amino-1-phenyl-propylamino)-pyridin-2-yl]-1H-pyrazolo[3,4-d]pyrimidin-6-yl}-cyclohexane-1,4-diamine; hydrochloride], the figures for the half-inhibitory concentration (IC50) on Human DYRK1B and at Human DYRK1A were 0.197 µM and 0.231 µM, respectively. The concentration giving a half-maximal response (EC50) in assay [1] was found to be 0.001 µM.

On to `N[C@H]1CC[C@H](Nc2ncc3c(-c4cccc(NCc5ccc(Cl)cc5)c4)n[nH]c3n2)CC1` [Example 55, N-{3-[3-(4-Chloro-benzylamino)-phenyl]-1H-pyrazolo[3,4-d]pyrimidin-6-yl}-cyclohexane-1,4-diamine], for which the IC50 was found to be 0.181 µM on Human DYRK1B and 0.502 µM at Human DYRK1A. For the same compound, the EC50 in assay [1] stood at 1.85 µM.

Consider `c1cc(NCc2cccs2)cc(-c2n[nH]c3nc(NCCN4CCOCC4)ncc23)c1` [Example 54, (2-Morpholin-4-yl-ethyl)-(3-{3-[(thiophen-2-ylmethyl)-amino]-phenyl}-1H-pyrazolo[3,4-d]pyrimidin-6-yl)-amine], for which the IC50 at Human DYRK1B is 4.96 µM; at Human DYRK1A, 3.85 µM. In addition, the EC50 in assay [1] was over 10 µM.

Consider `N[C@H]1CC[C@H](Nc2ncc3c(-c4ccnc(NCc5ccc(Cl)cc5)n4)n[nH]c3n2)CC1` [Example 72, N-{3-[2-(4-Chloro-benzylamino)-pyrimidin-4-yl]-1H-pyrazolo[3,4-d]pyrimidin-6-yl}-cyclohexane-1,4-diamine; hydrochloride], for which the IC50 stood at 0.009 µM at Human DYRK1B and 0.013 µM on Human DYRK1A. For the same compound, in assay [1], the EC50 came out at 0.056 µM.

Regarding `Clc1cccc(CNc2cccc(-c3n[nH]c4nc(NCCN5CCOCC5)ncc34)n2)c1` [Example 47, {3-[6-(3-Chloro-benzylamino)-pyridin-2-yl]-1H-pyrazolo[3,4-d]pyrimidin-6-yl}-(2-morpholin-4-yl-ethyl)-amine], the IC50 on Human DYRK1B is 1.06 µM; on Human DYRK1A, 1.39 µM. The EC50 in assay [1] was over 10 µM.

With `c1cc(-c2n[nH]c3nc(NCCN4CCOCC4)ncc23)nc(NCc2ccsc2)n1` [Example 77, (2-Morpholin-4-yl-ethyl)-(3-{2-[(thiophen-3-ylmethyl)-amino]-pyrimidin-4-yl}-1H-pyrazolo[3,4-d]pyrimidin-6-yl)-amine; hydrochloride], the IC50 is 0.04 µM at Human DYRK1B and 0.0129 µM on Human DYRK1A. The EC50 in assay [1] is 5.99 µM.

For `NCCC(Nc1cccc(-c2n[nH]c3nc(N[C@H]4CC[C@H](N)CC4)ncc23)c1)c1ccccc1` (stereo partly drawn) [Example 79, N-{3-[3-(3-Amino-1-phenyl-propylamino)-phenyl]-1H-pyrazolo[3,4-d]pyrimidin-6-yl}-cyclohexane-1,4-diamine; hydrochloride], the IC50 at Human DYRK1B was found to be 0.601 µM; at Human DYRK1A, 1.11 µM. In addition, the EC50 in assay [1] is over 10 µM.

Regarding `Clc1ccccc1CNc1nccc(-c2n[nH]c3nc(NCCN4CCOCC4)ncc23)n1` [Example 63, {3-[2-(2-Chloro-benzylamino)-pyrimidin-4-yl]-1H-pyrazolo[3,4-d]pyrimidin-6-yl}-(2-morpholin-4-yl-ethyl)-amine; hydrochloride], the IC50 was found to be 0.0671 µM on Human DYRK1B and 0.0371 µM at Human DYRK1A. The concentration giving a half-maximal response (EC50) in assay [1] came to 0.9 µM.
